Laboratory results taken from patent US11497212B2, “Substituted thiophenyl uracils, salts thereof and the use thereof as herbicidal agents” (Syngenta Crop Protection AG, priority 2017, dated 2022).
Values belong to the molecule of their own block, whether it stands above or below them.

Assays:
Type in all cases: in vivo
Matricaria inodora [1] = assay: Herbicidal action post-emergence (greenhouse pot trial); details: scored visually after about 3 weeks vs untreated controls
Outline: (§1)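 Visual efficacy score after ~3 wk in greenhouse vs untreated control; 100% = plants dead, 0% = like control. Spray: aqueous suspension/emulsion of WP or EC, 0.5% additive, 600 L/ha water, ≤80 g/ha. Plants in sandy loam pots, treated at one-leaf stage, 2–3 wk post-sowing.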

Viola tricolor [2] = assay: as above
Outline: as §1

Amaranthus retroflexus [3] = assay: as above; details: scored visually after about 3 weeks vs untreated controls
Outline: as §1

Abutilon theophrasti [4] = assay: as above; details: scored visually after about 3 weeks vs untreated controls
Outline: as §1

Veronica persica [5] = assay: as above
Outline: as §1

Polygonum convolvulus [6] = assay: as above; details: scored visually after about 3 weeks vs untreated controls
Outline: as §1

Matricaria inodora [7] = assay: Herbicidal action pre-emergence (greenhouse pot trial); details: scored after about 3 weeks
Outline: (§2)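 Efficacy scored visually as percent of untreated control (0% = like control, 100% = dead) roughly 3 weeks after treatment. Compounds, as WP or EC plus 0.5% additive in 600 L/ha water, were applied at up to 320 g/ha to soil surface covering freshly sown seeds.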

Viola tricolor [8] = assay: as above; details: scored after about 3 weeks
Outline: as §2

Amaranthus retroflexus [9] = assay: as above; details: scored after about 3 weeks
Outline: as §2

Abutilon theophrasti [10] = assay: as above; details: scored after about 3 weeks
Outline: as §2

Veronica persica [11] = assay: as above
Outline: as §2

Polygonum convolvulus [12] = assay: as above; details: application rate 80 g/ha, scored after about 3 weeks
Outline: as §2

Zea mays [13] = assay: Crop compatibility post-emergence (greenhouse pot trial)
Outline: (§3)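 Greenhouse pot trial: sandy loam, sown seeds, treatment at one-leaf stage 2–3 wk after sowing. Spray: aqueous WP/EC preparation, 0.5% additive, 600 L/ha. Readout: visual % effect after ~3 wk relative to untreated plants.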

Oryza sativa [14] = assay: as above; details: application rate 20 g/ha
Outline: as §3

Triticum aestivum = assay: as above; details: application rate 20 g/ha
Outline: as §3

Glycine max = assay: Crop compatibility pre-emergence (greenhouse pot trial); details: application rate 80 g/ha, effect vs untreated controls
Outline: (§4)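 Greenhouse pot test in which WP or EC formulations are applied to the covering soil before emergence (600 L/ha water, 0.5% additive). Crop effects are scored by eye as % after about 3 weeks, relative to untreated plants.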

Zea mays [15] = assay: as above; details: application rate 80 g/ha, effect vs untreated controls
Outline: as §4

Pharbitis purpurea [16] = assay: Herbicidal action post-emergence (greenhouse pot trial)
Outline: as §1

Digitaria sanguinalis [17] = assay: as above; details: application rate 20 g/ha
Outline: as §1

Echinochloa crus-galli [18] = assay: as above; details: scored visually after about 3 weeks vs untreated controls
Outline: as §1

Setaria viridis [19] = assay: as above; details: scored visually after about 3 weeks vs untreated controls
Outline: as §1

Stellaria media [20] = assay: as above; details: scored visually after about 3 weeks vs untreated controls
Outline: as §1

Pharbitis purpurea [21] = assay: Herbicidal action pre-emergence (greenhouse pot trial)
Outline: as §2

Digitaria sanguinalis [22] = assay: as above; details: application rate 80 g/ha
Outline: as §2

Echinochloa crus-galli [23] = assay: as above; details: scored after about 3 weeks
Outline: as §2

Setaria viridis [24] = assay: as above; details: scored after about 3 weeks
Outline: as §2

Stellaria media [25] = assay: as above; details: scored after about 3 weeks
Outline: as §2

Oryza sativa [26] = assay: Crop compatibility pre-emergence (greenhouse pot trial); details: effect vs untreated controls
Outline: as §4

Alopecurus myosuroides [27] = assay: Herbicidal action post-emergence (greenhouse pot trial); details: application rate 80 g/ha, scored visually after about 3 weeks vs untreated controls
Outline: as §1

Avena fatua [28] = assay: as above; details: application rate 80 g/ha, scored visually after about 3 weeks vs untreated controls
Outline: as §1

Alopecurus myosuroides [29] = assay: Herbicidal action pre-emergence (greenhouse pot trial); details: application rate 320 g/ha, scored after about 3 weeks
Outline: as §2

Avena fatua [30] = assay: as above; details: application rate 320 g/ha
Outline: as §2

Zea mays (Efficacy in %) (Zea mays [13]; application rate 20 g/ha): 10% | Oryza sativa (Efficacy in %) (Oryza sativa [14]): 0% | Triticum aestivum (Efficacy in %) (Triticum aestivum): 20% | Glycine max (Efficacy in %) (Glycine max): 0% | Zea mays (Efficacy in %) (Zea mays [15]): 0%
Compound: CC(Sc1cc(-n2c(=O)cc(C(F)(F)F)n(C)c2=O)c(F)cc1Cl)C(=O)OCC1CCCS1 (centres unmarked) [I.1-81]
Matricaria inodora (Efficacy in %) (Matricaria inodora [1]; application rate 20 g/ha): 90% | Viola tricolor (Efficacy in %) (Viola tricolor [2]; application rate 20 g/ha): 100% | Amaranthus retroflexus (Efficacy in %) (Amaranthus retroflexus [3]; application rate 20 g/ha): 100% | Abutilon theophrasti (Efficacy in %) (Abutilon theophrasti [4]; application rate 20 g/ha): 100% | Veronica persica (Efficacy in %) (Veronica persica [5]; application rate 20 g/ha): 100% | Polygonum convolvulus (Efficacy in %) (Polygonum convolvulus [6]; application rate 20 g/ha): 90% | Matricaria inodora (Efficacy in %) (Matricaria inodora [7]; application rate 80 g/ha): 80% | Viola tricolor (Efficacy in %) (Viola tricolor [8]; application rate 80 g/ha): 100% | Amaranthus retroflexus (Efficacy in %) (Amaranthus retroflexus [9]; application rate 80 g/ha): 100% | Abutilon theophrasti (Efficacy in %) (Abutilon theophrasti [10]; application rate 80 g/ha): 100% | Veronica persica (Efficacy in %) (Veronica persica [11]; application rate 80 g/ha): 80% | Polygonum convolvulus (Efficacy in %) (Polygonum convolvulus [12]): 100%

Zea mays (Efficacy in %) (Zea mays [13]; application rate 5 g/ha): 0% | Oryza sativa (Efficacy in %) (Oryza sativa [14]): 20% | Triticum aestivum (Efficacy in %) (Triticum aestivum): 20% | Glycine max (Efficacy in %) (Glycine max): 0% | Zea mays (Efficacy in %) (Zea mays [15]): 10% | Oryza sativa (Efficacy in %) (Oryza sativa [26]; application rate 20 g/ha): 0%
Compound: CCC(Sc1cc(-n2c(=O)cc(C(F)(F)F)n(C)c2=O)c(F)cc1Cl)C(=O)OCC1CCCO1 (centres unmarked) [I.2-71]
Pharbitis purpurea (Efficacy in %) (Pharbitis purpurea [16]; application rate 20 g/ha): 100% | Matricaria inodora (Efficacy in %) (Matricaria inodora [1]; application rate 20 g/ha): 100% | Digitaria sanguinalis (Efficacy in %) (Digitaria sanguinalis [17]): 100% | Viola tricolor (Efficacy in %) (Viola tricolor [2]; application rate 20 g/ha): 100% | Amaranthus retroflexus (Efficacy in %) (Amaranthus retroflexus [3]; application rate 20 g/ha): 100% | Echinochloa crus-galli (Efficacy in %) (Echinochloa crus-galli [18]; application rate 20 g/ha): 80% | Abutilon theophrasti (Efficacy in %) (Abutilon theophrasti [4]; application rate 20 g/ha): 100% | Setaria viridis (Efficacy in %) (Setaria viridis [19]; application rate 20 g/ha): 90% | Veronica persica (Efficacy in %) (Veronica persica [5]; application rate 20 g/ha): 100% | Polygonum convolvulus (Efficacy in %) (Polygonum convolvulus [6]; application rate 20 g/ha): 100% | Stellaria media (Efficacy in %) (Stellaria media [20]; application rate 20 g/ha): 100% | Pharbitis purpurea (Efficacy in %) (Pharbitis purpurea [21]; application rate 80 g/ha): 100% | Matricaria inodora (Efficacy in %) (Matricaria inodora [7]; application rate 80 g/ha): 100% | Digitaria sanguinalis (Efficacy in %) (Digitaria sanguinalis [22]): 100% | Viola tricolor (Efficacy in %) (Viola tricolor [8]; application rate 80 g/ha): 100% | Amaranthus retroflexus (Efficacy in %) (Amaranthus retroflexus [9]; application rate 80 g/ha): 100% | Echinochloa crus-galli (Efficacy in %) (Echinochloa crus-galli [23]; application rate 80 g/ha): 100% | Abutilon theophrasti (Efficacy in %) (Abutilon theophrasti [10]; application rate 80 g/ha): 100% | Setaria viridis (Efficacy in %) (Setaria viridis [24]; application rate 80 g/ha): 100% | Veronica persica (Efficacy in %) (Veronica persica [11]; application rate 80 g/ha): 100% | Polygonum convolvulus (Efficacy in %) (Polygonum convolvulus [12]): 100% | Stellaria media (Efficacy in %) (Stellaria media [25]; application rate 80 g/ha): 100%

Zea mays (Efficacy in %) (Zea mays [13]; application rate 80 g/ha): 20% | Zea mays (Efficacy in %) (Zea mays [15]): 20% | Oryza sativa (Efficacy in %) (Oryza sativa [26]; application rate 80 g/ha): 0%
Compound: Cn1c(C(F)(F)F)cc(=O)n(-c2cc(SCC(=O)NCC3CCCO3)c(Cl)cc2F)c1=O (centres unmarked) [I.8-271]
Pharbitis purpurea (Efficacy in %) (Pharbitis purpurea [16]; application rate 80 g/ha): 100% | Matricaria inodora (Efficacy in %) (Matricaria inodora [1]; application rate 80 g/ha): 100% | Viola tricolor (Efficacy in %) (Viola tricolor [2]; application rate 80 g/ha): 100% | Alopecurus myosuroides (Efficacy in %) (Alopecurus myosuroides [27]): 100% | Amaranthus retroflexus (Efficacy in %) (Amaranthus retroflexus [3]; application rate 80 g/ha): 100% | Echinochloa crus-galli (Efficacy in %) (Echinochloa crus-galli [18]; application rate 80 g/ha): 80% | Abutilon theophrasti (Efficacy in %) (Abutilon theophrasti [4]; application rate 80 g/ha): 100% | Setaria viridis (Efficacy in %) (Setaria viridis [19]; application rate 80 g/ha): 100% | Veronica persica (Efficacy in %) (Veronica persica [5]; application rate 80 g/ha): 100% | Polygonum convolvulus (Efficacy in %) (Polygonum convolvulus [6]; application rate 80 g/ha): 100% | Stellaria media (Efficacy in %) (Stellaria media [20]; application rate 80 g/ha): 100% | Avena fatua (Efficacy in %) (Avena fatua [28]): 90% | Pharbitis purpurea (Efficacy in %) (Pharbitis purpurea [21]; application rate 320 g/ha): 100% | Matricaria inodora (Efficacy in %) (Matricaria inodora [7]; application rate 320 g/ha): 100% | Viola tricolor (Efficacy in %) (Viola tricolor [8]; application rate 320 g/ha): 100% | Alopecurus myosuroides (Efficacy in %) (Alopecurus myosuroides [29]): 90% | Amaranthus retroflexus (Efficacy in %) (Amaranthus retroflexus [9]; application rate 320 g/ha): 100% | Echinochloa crus-galli (Efficacy in %) (Echinochloa crus-galli [23]; application rate 320 g/ha): 80% | Abutilon theophrasti (Efficacy in %) (Abutilon theophrasti [10]; application rate 320 g/ha): 100% | Setaria viridis (Efficacy in %) (Setaria viridis [24]; application rate 320 g/ha): 100% | Veronica persica (Efficacy in %) (Veronica persica [11]; application rate 320 g/ha): 100% | Stellaria media (Efficacy in %) (Stellaria media [25]; application rate 320 g/ha): 90% | Avena fatua (Efficacy in %) (Avena fatua [30]): 90%
